Data published in US20240158448A1, “MULTIVALENT NANO-'SELF' PEPTIDES AND USES THEREOF” (THE TRUSTEES OF THE UNIVERSITY OF PENNSYLVANIA, priority 2021, published 2024).
“Also recorded” adds a separate entry of the source. Where two headings read alike, the source gives them in different places. Non-standard residues stand in square brackets, D forms with d. Primed or numbered codes have the meaning given here. No end group written: not given here. PEG5′ = linker of 5 PEG units between residues

Columns and labels:
[1] = tested on: COS-1 (SIRPα negative) cells; test: Confocal live staining with FAM-labeled peptides, COS-1 cells; format: binding, monkey; settings: FAM-labeled peptide
Experimental: SIRPα staining and confocal imaging. THP-1 monocytes were PMA-differentiated in RPMI 1640 for 24 hours. J774A.1, A549, and COS-1 cells were plated for 24 hours in media, respectively. Cells were washed with respective media prior to addition of fluorescent peptides. The peptides were left to incubate for 1 hour at 37 ° C., 5% CO2 and 95% humidity. For fixed cell staining, cells were incubated with 4% formaldehyde (Pierce) for 15 minutes prior to the addition of fluorescent peptides whereas for live cell staining, fixation was done after incubation with the FAM-labeled peptides. Nuclei were stained with 1 μg/mL Hoechst 33342 (Invitrogen). Cells were the washed PBS three times before analysis. Fluorescence imaging of fixed cells was performed using an Olympus IX71 with a digital EMCCD camera (Cascade 512B) and a 40×/0.6 NA objective. […] Quantification was done with ImageJ (NIH).
In order to visualize the uneven binding of the peptides to the surface of the macrophages, a live staining experiment of THP-1, J774A.1, and A549 cells, which all express SIRPα at different levels, was performed with FAM-labeled nS-wt and nS-X and analyzed by confocal microscopy (FIG. 11). […] Fluorescence of nS-X was consistently lower on THP-1 and J774A.1 macrophages relative to nS-wt. […]

[2] = tested on: human THP-1 macrophages; test: In vitro phagocytosis assay: opsonized human RBCs engulfed by peptide-treated THP-1 macrophages; format: cell-based; settings: for EC50: opsonized human RBCs, human macrophages
Experimental: In vitro phagocytosis assay. Fresh human RBCs were washed twice with 50 mM EDTA (Thermo Fischer) in PBS (Gibco) then twice with 5% FBS in PBS. RBCs were opsonized with 20 μg/mL rabbit anti-human RBC antibody (Rockland) in 5% FBS for 1 hour at RT with shaking. For CD47 blocked RBCs, 5 μg/mL of mouse anti-human CD47 (B6H12; BD Biosciences) were added. Thereafter, RBCs were washed with PBS three times and stained with PKH26 dye (1:800 dilution in PBS; Sigma) for 1 hour at RT with shaking in the dark. RBCs were washed and resuspended in PBS.
THP-1 monocytes were PMA differentiated in RPMI for 48 hours. Macrophages were then washed with RPMI media three times. For SIRPα blocked THP-1 macrophages, 20 nM, 1 μM or 50 μM of the nano—Self peptides were incubated with the THP-1 macrophages for 1 hour at 37 ° C., 5% CO2 and 95% humidity. Those THP-Is were then washed with RPMI three times.
CO2 and 95% humidity. Macrophages were then washed with RPMI three times. Adherent and uninternalized RBCs were lysed with water for 30 seconds followed by immediate replacement with RPMI media. In order to distinguish remaining adherent RBCs from internalized RBCs, opsonized RBCs were stained with AlexaFluor 647 donkey anti-rabbit (binds to rabbit polyclonal opsonin on RBC; Invitrogen) IgG (1:1000) while unopsonized, CD47 blocked RBCs were stained with AlexaFluor 647 donkey anti-mouse (binds to mouse monoclonal anti-CD47 on RBCs; Invitrogen) IgG (1:1000) for 30 minutes. After washing, macrophages were fixed with 4% formaldehyde for 15 minutes at RT, washed with PBS, stained with 1 μg/mL Hoechst 33342, and then washed with PBS again. Fluorescence imaging was performed as described elsewhere herein and quantification was done using ImageJ. At least 200 cells were analyzed and experiments were repeated at least three times.

[3] = tested on: mouse bone marrow derived macrophages (BMDMs); test: Phagocytosis of anti-TYRP1 opsonized B16F10 melanoma cells by mouse bone marrow derived macrophages; format: cell-based
Experimental: B16F10 cells: Bone marrow cells were isolated from femurs and tibias of healthy C57BL6/J mice (The Jackson Laboratory) and cultured in 10-cm petri dishes containing IMDM (Gibco) supplemented with 10% v/v FBS, 1% v/v penicillin/streptomycin, and 1:10,000 macrophage colony stimulating factor cytokine (M-CSF; Biolegend) for 7 days at 37° C., 5% CO2 and 95% humidity. All animal experiments were performed according to protocols approved by the University of Pennsylvania's IACUC (protocol #805977 and #804455). The resulting mouse bone marrow derived macrophages (BMDMs) were washed with PBS containing Ca2^+/Mg2^+ (Gibco) then detached with 0.25% trypsin-EDTA (Gibco) and re-plated in 6-well tissue culture plates using IMDM+M-CSF for 24 hours.
Mouse melanoma B16F10 cells were washed with PBS containing Ca2-/Mg2- and then trypsinized with 0.05% trypsin-EDTA. After washing twice with PBS, the cells were labeled with 1:10,000 CFDA—SE (Thermo Fisher) in PBS for 10 minutes. B16F10 cells were opsonized with 10 μg/mL anti-TYRP1 (TA99; Bio X Cell) in PBS for 2 hours at 4° C.with occasional inverting. For CD47 blocked B16F10 cells, 5 μg/mL of […] were added. During the incubation time, the BMDMs were washed with media then stained with 1:2,000 CellTracker Deep Red (Thermo Fisher) in PBS with Ca2^+/Mg2^+ for 10 min. After washing, 50 μM of the nano—Self peptides were incubated with the BMDMs for 1 hour at 37° C., 5% CO2 and 95% humidity. Finally, BMDMs were washed twice with PBS and then twice with serum-free IMDM.
Without removing the supernatant, the opsonized melanoma cells were added to the labeled BMDMs at a ratio of 2:1 for 2 hours at 37° C., 5% CO2 and 95% humidity. During the last 15 minutes of the assay, the cells were Hoechst stained. The wells were washed with serum free IMDM then fixed with 4% formaldehyde for 15 minutes at RT, and PBS washed. Fluorescence imaging was performed using an Olympus IX71 with a digital EMCCD camera (Cascade 512B) and a 40×/0.6 NA objective. Quantification was done with ImageJ (NIH). At least 200 cells were analyzed and two-tailed student's t-test was used to determine statistical significance.

[4] = tested on: THP-1 macrophages; test: Peptide inhibition assay (competition with FAM-labeled nS-F on THP-1 macrophages); format: binding, human; settings: pre-treatment with unlabeled peptide
Experimental: Peptide inhibition assay. THP-1 monocytes were PMA differentiated in RPMI for 48 hours. […] To measure background internalization of the FAM-labeled peptides, nS-X-FAM was used. To determine the efficacy of the bivalent peptides to inhibit SIRPα binding, nS-X was used. Excess peptides were washed off with PBS and cells were fixed with 4% formaldehyde for 15 minutes at RT, washed with PBS, stained with 1 μg/mL Hoechst 33342, and then washed with PBS again. Fluorescence imaging was performed as described elsewhere herein and quantification was done using ImageJ.

| EC50 ([2]; read-out: effective potency (keff) for phagocytosis) | Substance | binding to COS-1 cells [1] | macrophages containing opsonized RBCs ([2]; maximum peptide concentration 50 μM, anti-RBC opsonized RBCs) | effect on phagocytosis of opsonized RBCs (words) ([2]; saturating / 50 μM peptide) | effect on phagocytosis of opsonized WT and SIRPα KO B16 cells ([3]; 50 μM peptide) | effect on phagocytosis of opsonized RBCs (words) ([2]; 20 nM peptide) | macrophages with at least one opsonized RBC internalized ([2]; 20 nM peptide, anti-RBC opsonized RBCs, 1 h assay) | increase in phagocytosis at higher concentration ([2]; 1 μM, 50 µM versus 20 nM) | EC50 ([2]; read-out: efficacy constant (Keff) for phagocytosis) | activity of bivalent peptide in primary mouse macrophages [3] | inhibition of monovalent nS-F-FAM binding to macrophages [4] |
| --- | --- | --- | --- | --- | --- | --- | --- | --- | --- | --- | --- |
| ~1000 nM | VTELTREG [nS-wt, 8-amino acid wild type nano-Self peptide from the CD47 loop, C-terminal amide] | primarily non-specific | ~30% | least effective among monovalents; also recorded: Lower levels of phagocytosis; also recorded: gives the same result as anti-CD47 | lower levels | – | – | – | – | – | – |
| – | (VTELFREG-PEG5)2-K (VTELFREG[PEG5′]K[PEG5′]GERFLETV; not fully specified; also: bivalent lysine core) [nS-FF, bivalent nS-F linked through PEG5 linkers to a C-terminal Lys] | – | – | – | – | successful in activating THP-1 to engulf opRBCs; also recorded: more potent in enhancing phagocytosis | ~40% | ~5% | ~8 nM | low activity; also recorded: reduced activity with mouse macrophages | further decreased |
